Earlier results, collected in patent US12397068B2, “Structural design of a cranial nerve degeneration contrast agent precursors” (INSTITUTE OF NUCLEAR ENERGY RESEARCH, ATOMIC ENERGY …, priority 2022, dated 2025).

Legend:
[1] = system: α-synuclein relative to Aβ and Tau proteins; conditions: in vitro; in words only; background statement
[2] = in words only; background statement
α-synuclein fibrils = α-synuclein fibrils (Homo sapiens, UniProt P37840); conditions: in words only; background statement

Compound	specificity for α-synuclein relative to β-amyloid (Aβ) and Tau [1]	in vitro stability [2]	affinity for α-synuclein (α-synuclein fibrils)
O=C1Nc2ccccc2C1=Cc1ccccc1	low specificity		
O=[N+]([O-])c1ccc2c(c1)Sc1cc(OCCF)ccc1N2 [SIL26]	reasonable degree in vitro specificity	low in vitro stability	
COc1ccc2c(c1)Sc1cc([N+](=O)[O-])ccc1N2 [SIL5]	reasonable degree in vitro specificity	low in vitro stability	
CN(C)c1ccc(/C=C/C=C/C2=[N+](C)C3=C(CCCC3)C2(C)C)cc1 [LDS 730]	reasonable degree in vitro specificity	low in vitro stability	
O=[N+]([O-])c1ccc2c(c1)Sc1cc(OC/C=C/[125I])ccc1N2 [SIL23]	reasonable degree in vitro specificity	low in vitro stability	
CC[n+]1ccc(/C=C/C=C/c2ccc(N(C)C)cc2)c2ccccc21.[O-][Cl+3]([O-])([O-])[O-] [LDS 798]	reasonable degree in vitro specificity	low in vitro stability	moderate affinity
